According to patent US4018801A, “Substituted oxirane compounds” (The Dow Chemical Company, priority 1975, dated 1977):

Legend:
Aspergillus terreus = experiment: Control of fungal plants on nutrient agar; type: cell-based; conditions: 500 parts by weight per million
Protocol: (§1) Separate acetone compositions containing 100 and 500 parts, respectively, of each of 2-(p-nitrophenyl)- 2-(2,2,2-trichloroethyl)oxirane and 2-(m-nitrophenyl)- 2-(2,2,2-trichloroethyl)oxirane compounds per million parts by weight of ultimate mixture were prepared by dissolving a pre-determined amount of each of the above compounds in acetone to give the desired concentrations. The solutions were dispersed in melted nutrient agar to produce culture media for fungal plants. The agar solutions were poured into petri dishes and allowed to solidify. The solidified agar surface in each petri dish was inoculated with one species of a fungal plant; the plants employed being Staphylococcus aureus, Candida albicans, Trichophton mentagrophytes, Bacillus subtilis, Aspergillus terreus, Candida pelliculosa, Pullularia pullulans, Mycobacterium phlei, Cephaloascus fragans and Aerobacter aerogenes.
(§2) The inoculation was carried out by applying droplets of a solution containing the fungal plants to the agar surfaces. The inoculated petri dishes were then incubated for an appropriate period of time and under conditions conducive to the growth of the fungal plants involved.
(§3) After incubation, the petri dishes were examined to determine the degree of control of the fungal plants.

Staphylococcus aureus = experiment: Control of fungal plants on nutrient agar; type: cell-based; conditions: 500 parts by weight per million
Protocol: as §1, §2, §3

Candida pelliculosa = experiment: Control of fungal plants on nutrient agar; type: cell-based; conditions: 500 parts by weight per million
Protocol: as §1, §2, §3

Cephaloascus fragans = experiment: Control of fungal plants on nutrient agar; type: cell-based; conditions: 500 parts by weight per million
Protocol: as §1, §2, §3

Candida albicans = experiment: Control of fungal plants on nutrient agar; type: cell-based; conditions: 500 parts by weight per million
Protocol: as §1, §2, §3

[1] = test system: Trichophton mentagrophytes; experiment: Control of fungal plants on nutrient agar; type: cell-based; conditions: 500 parts by weight per million
Protocol: as §1, §2, §3

Pullularia pullulans = experiment: Control of fungal plants on nutrient agar; type: cell-based; conditions: 500 parts by weight per million
Protocol: as §1, §2, §3

Mycobacterium phlei = experiment: Control of fungal plants on nutrient agar; type: cell-based; conditions: 500 parts by weight per million
Protocol: as §1, §2, §3

Bacillus subtilis = experiment: Control of fungal plants on nutrient agar; type: cell-based; conditions: 500 parts by weight per million
Protocol: as §1, §2, §3

Cultured Rice = experiment: Pre-emergent control of seed germination, soil drench; type: in vivo; conditions: about 2 weeks
Description: (§4) Four parts by weight of the compound, 0.08 part of sorbitan trioleate (Span 85), and 0.02 part of a sorbitan monooleate polyoxyethylene derivative (Tween 80) are dipersed in 40 milliliters of acetone to produce a concentrate composition in the form of a water-dispersible liquid containing the predetermined oxirane compound as the sole active agent.
(§5) A portion of each of these concentrate compositions were separately dispersed in portions of water to provide aqueous compositions, containing 0.44 pound of the oxirane compound per 100 gallons of ultimate aqueous mixture.
(§6) The aqueous compositions were then employed for the treatment of seed beds of good agricultural soil which had been prepared and seeded with the seeds of various grass species and broadleaf plants. The grass species included white winter wheat, cultured rice, pigweeds, crabgrass, cheat grass, wild oats, Johnson grass, barnyard grass and yellow foxtail; and the broadleaf plants included corn. In the treating operations, a predetermined quantity of each of the compositions was applied to separate seedbeds as a soil drench at a rate of about 0.43 acre inch of aqueous composition per acre. The quantities were controlled to supply a substantial uniform dosage in a seedbed equivalent to 1.0, 2.0 and 5.0 pounds of the oxirane compound per acre. These dosages correspond, respectively, to a concentration, within the soil depth penetrated of about 1.6, 3.2 and 8.0 parts by weight of the oxirane compound per million parts by weight of soil. Other seedbeds were similarly seeded with the named plant species but were left untreated to serve as checks.
(§7) After about 2 weeks the seedbeds were examined to ascertain what control of the growth of seeds had been obtained.
(§8) An aqueous composition containing 2-(α,α,α -trifluoro-m-tolyl)-2-(2,2,2-trichloroethyl)oxirane was prepared as described in Example 32. The composition was then employed according to the procedures of Example 32 except that lower concentrations of the oxirane compound were employed in the composition.
(§9) The percent control of the various plant species at the employed dosage rate of the 2-(α,α,α-trifluoro-m-tolyl)- 2-(2,2,2-trichloroethyl) supplied by the composition is set forth in the following Table IV.

White Winter Wheat = experiment: as above; type: in vivo; conditions: about 2 weeks
Description: as §4, §5, §6, §7, §8, §9

Cheat Grass = experiment: as above; type: in vivo; conditions: 5.0 pounds per surface acre, about 2 weeks
Description: as §4, §5
as §6, with “These dosages correspond, respectively, to a concentration, within the soil depth penetrated of about 1.6, 3.2 and 8.0 parts by weight of the oxirane compound per million parts by weight of soil. Other seedbeds were similarly seeded with the named plant species but were left untreated to serve as checks.” left out

Johnson Grass = experiment: as above; type: in vivo; conditions: Johnson Grass, about 2 weeks
Description: as §4, §5, §6, §7
(§10) were prepared as in Example 32 and similarly employed for the pre-emergencetreatment of various plant species.
(§11) Separate aqueous compositions containing the 2-(m-chlorophenyl)-2-(2,2,2-trichloroethyl)oxirane (Cmpd. A) and 2-(m-bromophenyl)-2-(2,2,2-trichloroethyl)oxirane (Cmpd. C) compounds of the present invention were prepared as in Example 32 for comparative per-emergence herbicide tests against noxious grass species with the known 2 -(p-chlorophenyl)-2-(2,2,2-trichloroethyl)oxirane (Cmpd. B) compound and 2-(p-bromophenyl)-2-(2,2,2-trichloroethyl)oxirane (Cmpd. D). The pre-emergence tests were conducted in Example 32 and the results of such tests are set forth below in Table III.
as §8, §9

Crabgrass = experiment: as above; type: in vivo; conditions: Crabgrass, about 2 weeks
Description: as §4, §5, §6, §7, §10, §11, §8, §9

Corn = experiment: as above; type: in vivo; conditions: about 2 weeks
Description: as §4, §5, §6
After about 2 weeks the seedbeds were examined to ascertain what control of the growth of seeds had been obtained. […]
as §8, §9

Barnyard Grass = experiment: as above; type: in vivo; conditions: Barnyard Grass, about 2 weeks
Description: as §4, §5, §6, §7, §10, §8, §9

Wild Oats = experiment: as above; type: in vivo; conditions: Wild Oats, about 2 weeks
Description: as §4, §5, §6, §7, §10, §8, §9

Pigweeds = experiment: as above; type: in vivo; conditions: Pig Weeds, about 2 weeks
Description: as §4, §5, §6, §7, §10, §8, §9

Yellow Foxtail = experiment: as above; type: in vivo; conditions: Yellow Foxtail, 1.0 pounds per surface acre, about 2 weeks
Description: as §4, §5, §6, §7, §10, §8, §9

O=[N+]([O-])c1cccc(C2(CC(Cl)(Cl)Cl)CO2)c1 (centres unmarked) [Example 2, 2-(m-nitrophenyl)-2-(2,2,2-trichloroethyl)oxirane]
degree of control of the fungal plants (Aspergillus terreus): complete control and kill
degree of control of the fungal plants (Staphylococcus aureus): complete control and kill
degree of control of the fungal plants (Candida pelliculosa): complete control and kill
degree of control of the fungal plants (Cephaloascus fragans): complete control and kill
degree of control of the fungal plants (Candida albicans): complete control and kill
degree of control of the fungal plants [1]: complete control and kill
degree of control of the fungal plants (Pullularia pullulans): complete control and kill
degree of control of the fungal plants (Mycobacterium phlei): complete control and kill
degree of control of the fungal plants (Bacillus subtilis): complete control and kill
Percent Pre-Emergent Control of Seed Germination (Cultured Rice; 1.0 pounds per surface acre): 100%
Percent Pre-Emergent Control of Seed Germination (Cultured Rice; 2.0 pounds per surface acre): 95%
Percent Pre-Emergent Control of Seed Germination (Cultured Rice; 5.0 pounds per surface acre): 100%
Percent Pre-Emergent Control of Seed Germination (White Winter Wheat; 1.0 pounds per surface acre): 90%
Percent Pre-Emergent Control of Seed Germination (White Winter Wheat; 2.0 pounds per surface acre): 50%
Percent Pre-Emergent Control of Seed Germination (White Winter Wheat; 5.0 pounds per surface acre): 95%
Percent Pre-Emergent Control of Seed Germination (Cheat Grass): 100%
Percent Pre-Emergent Control of Seed Germination (Johnson Grass; 1.0 pounds per surface acre): 70%
Percent Pre-Emergent Control of Seed Germination (Johnson Grass; 2.0 pounds per surface acre): 85%
Percent Pre-Emergent Control of Seed Germination (Johnson Grass; 5.0 pounds per surface acre): 95%
Percent Pre-Emergent Control of Seed Germination (Crabgrass; 1.0 pounds per surface acre): 95%
Percent Pre-Emergent Control of Seed Germination (Crabgrass; 2.0 pounds per surface acre): 100%
Percent Pre-Emergent Control of Seed Germination (Crabgrass; 5.0 pounds per surface acre): 100%
Percent Pre-Emergent Control of Seed Germination (Corn; 1.0 pounds per surface acre): 100%
Percent Pre-Emergent Control of Seed Germination (Corn; 2.0 pounds per surface acre): 50%
Percent Pre-Emergent Control of Seed Germination (Corn; 5.0 pounds per surface acre): 0%
Percent Pre-Emergent Control of Seed Germination (Barnyard Grass; 1.0 pounds per surface acre): 50%
Percent Pre-Emergent Control of Seed Germination (Barnyard Grass; 2.0 pounds per surface acre): 50%
Percent Pre-Emergent Control of Seed Germination (Barnyard Grass; 5.0 pounds per surface acre): 95%
Percent Pre-Emergent Control of Seed Germination (Wild Oats; 1.0 pounds per surface acre): 40%
Percent Pre-Emergent Control of Seed Germination (Wild Oats; 2.0 pounds per surface acre): 50%
Percent Pre-Emergent Control of Seed Germination (Wild Oats; 5.0 pounds per surface acre): 80%
Percent Pre-Emergent Control of Seed Germination (Pigweeds; 1.0 pounds per surface acre): 85%
Percent Pre-Emergent Control of Seed Germination (Pigweeds; 2.0 pounds per surface acre): 95%
Percent Pre-Emergent Control of Seed Germination (Pigweeds; 5.0 pounds per surface acre): 95%
Percent Pre-Emergent Control of Seed Germination (Yellow Foxtail): 100%
